Experimental data as given in ChEMBL document CHEMBL1909046, “DrugMatrix in vitro pharmacology data”.

Key:
[1] = molecular target: T1, Nitric oxide synthase, inducible (Mus musculus, UniProt P29477); parameters: species or system Escherichia coli;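 further: inhibition of iNOS enzyme activity measured with L-arginine as substrate; in other assays of this panel Not Active means under 50% inhibition at 10 µM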
T1 sequence (P29477 whole entry): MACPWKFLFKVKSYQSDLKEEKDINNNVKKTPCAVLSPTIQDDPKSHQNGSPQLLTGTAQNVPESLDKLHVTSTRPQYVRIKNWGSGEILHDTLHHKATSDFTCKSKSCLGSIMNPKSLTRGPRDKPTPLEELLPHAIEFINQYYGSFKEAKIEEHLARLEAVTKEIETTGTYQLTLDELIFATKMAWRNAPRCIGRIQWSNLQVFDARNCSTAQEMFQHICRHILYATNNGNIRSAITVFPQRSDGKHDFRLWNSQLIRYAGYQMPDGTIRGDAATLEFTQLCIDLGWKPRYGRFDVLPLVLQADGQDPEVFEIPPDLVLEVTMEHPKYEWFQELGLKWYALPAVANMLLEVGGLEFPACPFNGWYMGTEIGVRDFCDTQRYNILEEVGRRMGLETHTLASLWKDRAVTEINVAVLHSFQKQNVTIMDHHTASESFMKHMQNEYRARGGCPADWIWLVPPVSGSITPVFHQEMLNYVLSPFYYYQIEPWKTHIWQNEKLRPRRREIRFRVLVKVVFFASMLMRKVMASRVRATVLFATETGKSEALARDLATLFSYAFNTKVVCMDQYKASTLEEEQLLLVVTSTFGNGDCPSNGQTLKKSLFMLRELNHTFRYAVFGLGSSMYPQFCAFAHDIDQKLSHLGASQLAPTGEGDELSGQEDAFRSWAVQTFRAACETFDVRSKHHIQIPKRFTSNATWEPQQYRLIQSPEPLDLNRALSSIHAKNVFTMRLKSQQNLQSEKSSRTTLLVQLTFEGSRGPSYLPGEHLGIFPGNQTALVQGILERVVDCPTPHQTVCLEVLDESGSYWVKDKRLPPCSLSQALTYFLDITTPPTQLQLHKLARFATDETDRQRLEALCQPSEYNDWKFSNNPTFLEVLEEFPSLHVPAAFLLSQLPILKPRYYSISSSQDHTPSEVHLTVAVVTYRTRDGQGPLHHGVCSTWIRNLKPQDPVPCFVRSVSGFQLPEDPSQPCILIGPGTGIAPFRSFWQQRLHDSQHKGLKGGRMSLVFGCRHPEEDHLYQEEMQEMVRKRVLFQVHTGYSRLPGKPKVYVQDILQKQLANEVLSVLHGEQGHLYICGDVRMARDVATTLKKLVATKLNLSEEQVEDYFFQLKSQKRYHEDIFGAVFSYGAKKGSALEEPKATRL

[2] = DRUGMATRIX: Nicotinic Acetylcholine radioligand binding (ligand: [125I] Epibatidine); assay type: cell membranes, Membrane; details: imr-32; Not Active = under 50% inhibition at 10 µM
[3] = molecular target: Epidermal growth factor receptor (Homo sapiens, UniProt P00533); assay: DRUGMATRIX: Protein Tyrosine Kinase, EGF Receptor enzyme inhibition (substrate: Poly(Glu:Tyr)); assay type: cell-based, Insect cells; details: insect cells; Not Active = under 50% inhibition at 10 µM
[4] = DRUGMATRIX: Calcium Channel Type L, Dihydropyridine radioligand binding (ligand: [3H] Nitrendipine); assay type: cell membranes, Rattus norvegicus, Wistar, Cerebral cortex, Membrane; details: Not Active = under 50% inhibition at 10 µM
[5] = molecular target: T2, C-C chemokine receptor type 4 (Homo sapiens, UniProt P51679); assay type: cell membranes, Membrane; details: chem-1; further: in other assays of this panel Not Active means under 50% inhibition at 10 µM
T2 sequence (P51679 whole entry): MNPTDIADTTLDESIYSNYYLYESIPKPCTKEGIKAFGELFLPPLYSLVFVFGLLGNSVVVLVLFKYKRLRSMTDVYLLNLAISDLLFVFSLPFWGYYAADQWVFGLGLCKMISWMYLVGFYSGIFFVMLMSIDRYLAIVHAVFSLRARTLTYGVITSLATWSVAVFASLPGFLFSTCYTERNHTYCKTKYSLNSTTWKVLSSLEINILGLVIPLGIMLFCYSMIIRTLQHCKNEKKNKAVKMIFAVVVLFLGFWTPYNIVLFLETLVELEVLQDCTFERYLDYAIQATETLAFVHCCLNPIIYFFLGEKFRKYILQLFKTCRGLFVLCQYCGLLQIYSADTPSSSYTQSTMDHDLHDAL

[6] = molecular target: T3, Alpha-1B adrenergic receptor (Rattus norvegicus, UniProt P15823); assay: DRUGMATRIX: Alpha-1B adrenergic receptor radioligand binding (ligand: prazosin); assay type: cell membranes, Wistar, Liver, Membrane; details: Not Active = under 50% inhibition at 10 µM
T3 sequence (P15823 whole entry): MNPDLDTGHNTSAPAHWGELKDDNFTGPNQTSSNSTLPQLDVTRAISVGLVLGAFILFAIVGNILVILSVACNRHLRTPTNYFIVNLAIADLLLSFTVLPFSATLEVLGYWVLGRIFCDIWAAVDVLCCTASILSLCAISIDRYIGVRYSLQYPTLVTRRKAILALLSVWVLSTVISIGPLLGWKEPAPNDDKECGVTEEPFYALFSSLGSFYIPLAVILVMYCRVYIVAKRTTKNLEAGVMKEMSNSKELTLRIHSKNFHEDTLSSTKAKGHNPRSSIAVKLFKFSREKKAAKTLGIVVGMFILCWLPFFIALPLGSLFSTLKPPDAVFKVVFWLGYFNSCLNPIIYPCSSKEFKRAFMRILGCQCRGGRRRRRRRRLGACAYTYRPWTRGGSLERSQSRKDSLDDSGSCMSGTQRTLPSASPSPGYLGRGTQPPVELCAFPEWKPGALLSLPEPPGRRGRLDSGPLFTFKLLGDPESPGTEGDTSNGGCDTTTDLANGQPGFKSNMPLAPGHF

[7] = molecular target: T4, Endothelin-1 receptor (Homo sapiens, UniProt P25101); assay type: cell membranes, Membrane; details: cho-k1; further: in other assays of this panel Not Active means under 50% inhibition at 10 µM
T4 sequence (P25101 whole entry): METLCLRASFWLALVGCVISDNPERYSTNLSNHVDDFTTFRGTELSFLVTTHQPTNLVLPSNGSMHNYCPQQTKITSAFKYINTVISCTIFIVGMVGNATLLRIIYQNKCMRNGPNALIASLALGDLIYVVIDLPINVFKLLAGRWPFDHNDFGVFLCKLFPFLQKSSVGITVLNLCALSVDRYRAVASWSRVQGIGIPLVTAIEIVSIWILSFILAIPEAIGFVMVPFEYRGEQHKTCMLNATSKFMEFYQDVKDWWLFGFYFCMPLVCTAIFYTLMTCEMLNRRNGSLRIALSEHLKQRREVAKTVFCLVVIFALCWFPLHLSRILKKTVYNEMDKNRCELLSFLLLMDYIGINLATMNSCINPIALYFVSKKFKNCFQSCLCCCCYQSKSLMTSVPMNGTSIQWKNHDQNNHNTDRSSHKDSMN

[8] = DRUGMATRIX: Phosphodiesterase PDE4 enzyme inhibition (substrate: [3H]cAMP + cAMP); details: u-937; Not Active = under 50% inhibition at 10 µM
[9] = DRUGMATRIX: Serotonin (5-Hydroxytryptamine) 5-HT3 radioligand binding (ligand: [3H] GR-65630); assay type: cell membranes, Membrane; details: hek293; Not Active = under 50% inhibition at 10 µM

Chain of Epidermal growth factor receptor (P00533 whole entry): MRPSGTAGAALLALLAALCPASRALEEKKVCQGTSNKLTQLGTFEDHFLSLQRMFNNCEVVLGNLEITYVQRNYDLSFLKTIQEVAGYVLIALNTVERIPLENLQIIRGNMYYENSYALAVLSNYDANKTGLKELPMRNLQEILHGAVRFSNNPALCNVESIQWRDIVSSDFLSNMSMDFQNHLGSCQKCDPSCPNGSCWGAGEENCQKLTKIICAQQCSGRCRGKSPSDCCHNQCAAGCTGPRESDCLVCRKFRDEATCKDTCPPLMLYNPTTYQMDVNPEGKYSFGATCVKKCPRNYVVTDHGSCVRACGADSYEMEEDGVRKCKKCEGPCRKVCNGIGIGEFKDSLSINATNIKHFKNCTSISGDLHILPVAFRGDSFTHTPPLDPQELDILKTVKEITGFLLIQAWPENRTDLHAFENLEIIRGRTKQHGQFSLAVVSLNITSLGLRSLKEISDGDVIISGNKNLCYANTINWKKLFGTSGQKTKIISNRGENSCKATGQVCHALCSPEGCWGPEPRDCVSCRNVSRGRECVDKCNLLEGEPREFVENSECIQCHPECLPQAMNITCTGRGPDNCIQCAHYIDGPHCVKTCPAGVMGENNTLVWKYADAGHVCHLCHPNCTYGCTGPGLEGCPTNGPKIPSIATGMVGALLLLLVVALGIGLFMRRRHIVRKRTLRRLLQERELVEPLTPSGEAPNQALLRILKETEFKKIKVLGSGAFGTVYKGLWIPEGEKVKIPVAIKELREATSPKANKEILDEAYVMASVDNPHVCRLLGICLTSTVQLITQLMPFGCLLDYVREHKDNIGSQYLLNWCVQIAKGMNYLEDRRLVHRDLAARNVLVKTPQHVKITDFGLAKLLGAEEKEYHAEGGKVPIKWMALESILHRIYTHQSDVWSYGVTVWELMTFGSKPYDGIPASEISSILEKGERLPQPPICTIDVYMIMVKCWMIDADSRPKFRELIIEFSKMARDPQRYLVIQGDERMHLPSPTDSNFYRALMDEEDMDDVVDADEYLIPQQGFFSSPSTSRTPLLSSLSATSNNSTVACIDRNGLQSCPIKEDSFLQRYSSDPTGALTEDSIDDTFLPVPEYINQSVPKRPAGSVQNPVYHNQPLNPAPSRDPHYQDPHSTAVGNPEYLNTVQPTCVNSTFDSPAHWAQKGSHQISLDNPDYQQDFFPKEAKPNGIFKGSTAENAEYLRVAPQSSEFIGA

CC(=O)S[C@@H]1CC2=CC(=O)CC[C@]2(C)[C@H]2CC[C@@]3(C)[C@@H](CC[C@@]34CCC(=O)O4)[C@H]12 [SPIRONOLACTONE]
Not Active: IC50 [1] | IC50 [2] | Ki [2] | IC50 [3] | IC50 [4] | Ki [4] | IC50 [5] | IC50 [6] | IC50 [7] | IC50 [8] | Ki [8] | IC50 [9] | Ki [9]

C[C@]12Cc3c[nH]nc3C[C@@H]1CC[C@@H]1[C@@H]2CC[C@@]2(C)[C@H]1CC[C@]2(C)O [STANOZOLOL]
Not Active: IC50 [1] | IC50 [2] | Ki [2] | IC50 [3] | IC50 [4] | Ki [4] | IC50 [5] | IC50 [6] | IC50 [7] | IC50 [8] | Ki [8] | IC50 [9] | Ki [9]

CN(N=O)C(=O)N[C@@H](C=O)[C@@H](O)[C@H](O)[C@H](O)CO [STREPTOZOCIN]
Not Active: IC50 [1] | IC50 [2] | Ki [2] | IC50 [3] | IC50 [4] | Ki [4] | IC50 [5] | IC50 [6] | IC50 [7] | IC50 [8] | Ki [8] | IC50 [9] | Ki [9]

Cc1cc(NS(=O)(=O)c2ccc(N)cc2)no1 [SULFAMETHOXAZOLE]
Not Active: IC50 [1] | IC50 [2] | Ki [2] | IC50 [3] | IC50 [4] | Ki [4] | IC50 [5] | IC50 [6] | IC50 [7] | IC50 [8] | Ki [8] | IC50 [9] | Ki [9]

Nc1ccc(S(N)(=O)=O)cc1 [SULFANILAMIDE]
Not Active: IC50 [1] | IC50 [2] | Ki [2] | IC50 [3] | IC50 [4] | Ki [4] | IC50 [5] | IC50 [6] | IC50 [7] | IC50 [8] | Ki [8] | IC50 [9] | Ki [9]

Nc1ccc(S(=O)(=O)Nc2ccnn2-c2ccccc2)cc1 [SULFAPHENAZOLE]
Not Active: IC50 [1] | IC50 [2] | Ki [2] | IC50 [3] | IC50 [4] | Ki [4] | IC50 [5] | IC50 [6] | IC50 [7] | IC50 [8] | Ki [8] | IC50 [9] | Ki [9]

C=CC[C@@H]1/C=C(\C)C[C@H](C)C[C@H](OC)[C@H]2O[C@@](O)(C(=O)C(=O)N3CCCC[C@H]3C(=O)O[C@H](/C(C)=C/[C@@H]3CC[C@@H](O)[C@H](OC)C3)[C@H](C)[C@@H](O)CC1=O)[C@H](C)C[C@@H]2OC [TACROLIMUS ANHYDROUS]
Not Active: IC50 [1] | IC50 [2] | Ki [2] | IC50 [3] | IC50 [4] | Ki [4] | IC50 [5] | IC50 [6] | IC50 [7] | IC50 [8] | Ki [8] | IC50 [9] | Ki [9]
